# Test results published in publication PMC7464552, “Structural Basis of Beneficial Design for Effective Nicotinamide Phosphoribosyltransferase Inhibitors” (Molecules, 2020).
# Columns and labels:
# recombinant NAMPT = target: T1, recombinant NAMPT (Homo sapiens, UniProt P43490); experiment: Enzymatic NAMPT assay (CycLex NAMPT colorimetric coupled-enzyme reaction system); assay type: biochemical; details: for IC50: titration curves of Figure 3a, coupled-enzyme colorimetric assay, read-out: IC50 (NAMPT inhibitory activity)
# T1 construct: purchased MEDICAL & BIOLOGICAL LABORATORIES CO., LTD; (CycLex NAMPT Colorimetric Assay Kit)
# T1 sequence (P43490 whole entry): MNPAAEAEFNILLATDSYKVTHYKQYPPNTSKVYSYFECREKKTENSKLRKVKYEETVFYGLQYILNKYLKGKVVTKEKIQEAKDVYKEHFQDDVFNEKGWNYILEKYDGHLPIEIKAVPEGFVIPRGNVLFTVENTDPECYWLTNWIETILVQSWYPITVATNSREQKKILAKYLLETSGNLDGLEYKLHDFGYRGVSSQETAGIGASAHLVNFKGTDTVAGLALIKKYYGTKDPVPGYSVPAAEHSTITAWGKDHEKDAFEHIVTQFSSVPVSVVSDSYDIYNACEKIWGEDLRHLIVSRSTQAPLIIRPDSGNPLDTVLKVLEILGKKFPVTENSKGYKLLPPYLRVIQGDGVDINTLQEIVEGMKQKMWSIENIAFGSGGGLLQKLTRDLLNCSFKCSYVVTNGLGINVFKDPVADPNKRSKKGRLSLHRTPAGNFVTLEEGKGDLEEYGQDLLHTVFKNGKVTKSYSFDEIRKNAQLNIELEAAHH
# Procedure: For the inhibitory effects of 3a and 3b on NAMPT activity, recombinant NAMPT activity was measured using a coupled-enzyme reaction system (CycLex NAMPT Colorimetric Assay Kit: MEDICAL & BIOLOGICAL LABORATORIES CO., LTD., Nagoya, Japan) according to the manufacturer’s instructions, as described previously. Briefly, NAMPT enzyme and tested compounds were put on the 96-well transparent plate. […] After a brief incubation, the absorbance of the samples was detected at 450 nm on every 10 min until 60 min using a SYNERGY HTX (BioTek Instruments, Inc.; Winooski, VT, USA). The inhibition rates were calculated by the initial slope of the absorbance of the tested samples divided by that of the control wells. The IC50 values for the samples were calculated by 4-parameter logistic regression using Image J 1.48v (https://imagej.nih.gov/ij/).
# Figure 3 Biochemical properties of 3a and 3b. […] NAMPT activity was measured using a coupled-enzyme reaction system (CycLex NAMPT colorimetric assay kit) in 96-well plate format using the one-step method. Data are the averages of three independent experiments, and the bars indicate the standard error (SE) values. (b) The anti-proliferative effects of 3a (circle) and 3b (triangle) on HCT116 cells were investigated as described previously. HCT116 cells were treated with the indicated concentrations of each inhibitor with (closed symbol) or without (open symbol) 100 μM NMN for 72 h. The cell activity (% of control) was measured by use of the WST-8 assay. Data are presented as the means of three independent experiments ± SE, and the bars indicate the SE values.
# HCT116 cells = experiment: Cell activity (anti-proliferation) assay, WST-8, 72 h; assay type: cell-based, human; details: for rescue of HCT116 cells from cell death by supplementation of NMN: 100 μM NMN in the cell culture medium, 72 h; for EC50: Homo sapiens, HCT-116, read-out: 50% effective concentration (EC50), anti-proliferation, HCT116, continuous exposure for 72 h, WST-8
# Procedure: (§1) To confirm the marked differences of anti-NAMPT activities between 3a and 3b, the anti-proliferation effects of these inhibitors on the human colon cancer cell line HCT116 were examined after continuous exposure for 72 h. […] In addition, there was little cytotoxicity on non-cancer cell lines, such as TIG-120, WI38 and MRC-5 cells. Both 3a and 3b caused more than 90% reduction of NAD^+ levels in the cancer cells after 24 h-treatment and thereby induced cell death.
# HCT116 cell was obtained from American Type Culture Collection (ATCC) (Manassas, US) and cultured in Dulbecco’s modified Eagle medium (DMEM) (FUJIFILM Wako Pure Chemical Corporation) supplemented with 10% of fetal bovine serum (Biosera Europe; Nuaillé, France), 100 Units/mL of penicillin G and 100 μg/mL of Streptomycin (FUJIFILM Wako Pure Chemical Corporation).
# One thousand HCT116 cells were inoculated into the 96-well transparent cell culture plate and cultured for 24 h. The medium was changed to new medium that contained the tested compounds and was further cultivated for 72 h. Following the culture, 1/10 volume of the WST-8 reagent (FUJIFILM Wako Pure Chemical Corporation) was added and incubated for 1 h. After the incubation, the absorbance of the samples was detected at 450 nm using a SYNERGY HTX (BioTek Instruments, Inc.). Cell activity was expressed as percentage of control cells treated with vehicle alone.
# Figure 3 Biochemical properties of 3a and 3b. (a) The inhibitory activities of 3a (open circle), 3b (open triangle) and 1 (open square) against NAMPT enzyme were examined, as described previously. NAMPT activity was measured using a coupled-enzyme reaction system (CycLex NAMPT colorimetric assay kit) in 96-well plate format using the one-step method. Data are the averages of three independent experiments, and the bars indicate the standard error (SE) values. (b) The anti-proliferative effects of 3a (circle) and 3b (triangle) on HCT116 cells were investigated as described previously. HCT116 cells were treated with the indicated concentrations of each inhibitor with (closed symbol) or without (open symbol) 100 μM NMN for 72 h. The cell activity (% of control) was measured by use of the WST-8 assay. Data are presented as the means of three independent experiments ± SE, and the bars indicate the SE values.
# [1] = test system: NAD+ levels in the cancer cells; experiment: Reduction of NAD+ levels in the cancer cells after 24 h-treatment; assay type: cell-based, human
# Procedure: as §1
SMILES,"fold weaker NAMPT inhibitory activity than 3a (recombinant NAMPT; ratio of IC50 values, versus 3a)",IC50 (recombinant NAMPT),rescue of HCT116 cells from cell death by supplementation of NMN (HCT116 cells),"fold higher EC50 than 3a (HCT116 cells; HCT116, 72 h, ratio of EC50 values, versus 3a)",EC50 (HCT116 cells),reduction of NAD+ levels [1],"fold stronger NAMPT inhibitory activity than 1 (recombinant NAMPT; ratio of IC50 values, versus 1)"
"O=C(NCCCCN1CCN(C(=O)c2ccccc2)CC1)c1cc2cnccc2[nH]1 [Compound 3b, N-(4-(4-Benzoylpiperazin-1-yl)butyl)-1H-pyroro[3,2-c]pyridine-2-carboxamide]",about 50 fold,5060 nM,significantly rescue,approximately 200 fold,87.5 nM,more than 90%,
"O=C(NCCCCC1CCN(C(=O)c2ccccc2)CC1)c1cc2cnccc2[nH]1 [Compound 3a, N-(4-(1-benzoylpiperidin-4-yl)butyl)-1H-pyrrolo[3,2-c]pyridine-2-carboxamide]",,110 nM,significantly rescue,,0.48 nM,more than 90%,approximately 5 fold
